Consider seven molecules from ChEMBL document CHEMBL1201862, “PubChem BioAssay data set” (2004).

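Interpolation was linear, between the two tested concentrations surrounding the appropriate level; five concentrations were tested over 48 hours in 96-well plates. GI50 marks 50% less growth.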 Calls of active or inactive are those of the source. Cut-off read from the data, not from the text of the source: active = GI50 up to about 1.1 µM and inactive = higher.

Test systems include RPMI-8226; RXF 393; M14; MDA-MB-435; NCI-H522; UO-31; CAKI-1; SNB-19; NCI/ADR-RES; TK-10; Hs-578T; U-251; 786-0; MDA-N; KM12; MOLT-4; NCI-H23; IGROV-1; SW-620.
Assay in all cases: DTP human tumour cell line panel, 48 h

In general, GI50 refers to the concentration giving 50% growth inhibition. Take `CC(C)CC(NC(=O)C(Cc1ccccc1)NC(=O)[C@H]1CC[C@H](NC(=O)C(Cc2ccc(OC(C)(C)C)cc2)NC(=O)OC(C)(C)C)C1)C(N)=O` (stereo partly drawn): the GI50 with RPMI-8226 was 17.7 µM (inactive); in the experiment with RXF 393, 67.8 µM (inactive); with M14, 16.6 µM (inactive); with MDA-MB-435 it was 18.7 µM (inactive); with NCI-H522, 14.4 µM (inactive); in the experiment with UO-31, 47 µM (inactive). Also, the GI50 in the experiment with CAKI-1 was > 100 µM (inactive); with SNB-19 it was 38.4 µM (inactive); with NCI/ADR-RES it was > 100 µM (inactive); in the experiment on TK-10, 29.3 µM (inactive); with Hs-578T, 11.5 µM (inactive); in the experiment on U-251 it was 14.8 µM (inactive). Further, the GI50 was 46.7 µM (inactive) in the experiment on 786-0; 19.3 µM (inactive) in the experiment with MDA-N; 20.2 µM (inactive) in the experiment with KM12; 12.5 µM (inactive) with MOLT-4; 16.2 µM (inactive) in the experiment with NCI-H23; 23.1 µM (inactive) in the experiment on IGROV-1. The GI50 in the experiment on SW-620 was 29.2 µM (inactive).
As for `COC(OC)C1OC(CO)C(n2cc(C)c(=O)[nH]c2=O)C1O` (stereo not drawn), the GI50 in the experiment on RPMI-8226 is > 100 µM (inactive); in the experiment with RXF 393, 61.7 µM (inactive); in the experiment with M14 it was > 100 µM (inactive); in the experiment with MDA-MB-435, > 100 µM (inactive); in the experiment on NCI-H522, > 100 µM (inactive); in the experiment with UO-31, > 100 µM (inactive). Further, the GI50 in the experiment with CAKI-1, in the experiment on SNB-19, in the experiment with NCI/ADR-RES, with TK-10, in the experiment on Hs-578T and in the experiment on U-251 was > 100 µM (inactive) throughout. For the same molecule, the GI50 with 786-0, in the experiment on MDA-N, in the experiment with KM12, with MOLT-4, in the experiment on NCI-H23 and in the experiment with IGROV-1 was > 100 µM (inactive) each time. For the same molecule, in the experiment with SW-620, the GI50 is > 100 µM (inactive).
For `CC(=O)c1ccc(NCc2cc(O)ccc2O)cc1`, the GI50 with RPMI-8226 was 5.38 µM (inactive); with RXF 393, 14 µM (inactive); in the experiment on M14, 19.1 µM (inactive); with MDA-MB-435, 21.1 µM (inactive); in the experiment with NCI-H522, 31.3 µM (inactive); in the experiment with UO-31, 11.4 µM (inactive). For the same molecule, the GI50 was 17.9 µM (inactive) in the experiment with CAKI-1; 38.8 µM (inactive) in the experiment on SNB-19; 36.5 µM (inactive) in the experiment on NCI/ADR-RES; 15.3 µM (inactive) with TK-10; 29.4 µM (inactive) in the experiment on Hs-578T; 21.8 µM (inactive) in the experiment with U-251. Moreover, the GI50 was 13.3 µM (inactive) with 786-0; 20.4 µM (inactive) in the experiment on MDA-N; 14.2 µM (inactive) in the experiment with KM12; 3.85 µM (inactive) with MOLT-4; 22.5 µM (inactive) in the experiment on NCI-H23; > 100 µM (inactive) in the experiment with IGROV-1. In the experiment on SW-620, the GI50 is 36.7 µM (inactive).
For the molecule `CCCCCCCCCCCCCCCCCCNc1ccn(C2OC(COP(=O)(O)OCC(COP(=O)(O)OCC3OC(n4cc(C)c(=O)[nH]c4=O)CC3N=[N+]=[N-])OCCCCCCCCCCCCCCCCCC)C(O)C2O)c(=O)n1` (stereo not drawn), the GI50 was 7.46 µM (inactive) in the experiment with RPMI-8226; 51.6 µM (inactive) in the experiment with RXF 393; > 100 µM (inactive) in the experiment with M14; 87.1 µM (inactive) in the experiment on MDA-MB-435; 12.6 µM (inactive) in the experiment with NCI-H522; 17.7 µM (inactive) in the experiment on UO-31. Further, the GI50 with CAKI-1 is > 100 µM (inactive); in the experiment with SNB-19 it was 19.4 µM (inactive); in the experiment with NCI/ADR-RES, > 100 µM (inactive); in the experiment with TK-10 it was > 100 µM (inactive); in the experiment with Hs-578T it was > 100 µM (inactive); with U-251, 12.8 µM (inactive). Further, the GI50 was 54.1 µM (inactive) in the experiment with 786-0; > 100 µM (inactive) in the experiment on MDA-N; 38.5 µM (inactive) in the experiment on KM12; 41.5 µM (inactive) in the experiment on MOLT-4; 77.4 µM (inactive) with NCI-H23; 52.2 µM (inactive) in the experiment on IGROV-1. Also, the GI50 in the experiment with SW-620 was > 100 µM (inactive).
Turning to `Cc1ccc(O)c(-c2cc(-c3cccc(Br)c3)c(C#N)c(N)n2)c1`, the GI50 in the experiment on RPMI-8226 is 11.5 µM (inactive); in the experiment with RXF 393 it was 20.8 µM (inactive); in the experiment with M14 it was 31.9 µM (inactive); with MDA-MB-435, 16.3 µM (inactive); in the experiment with NCI-H522 it was 18.9 µM (inactive); in the experiment with UO-31, 20.4 µM (inactive). The GI50 in the experiment on CAKI-1 was 21.8 µM (inactive); with SNB-19 it was 19.3 µM (inactive); in the experiment on NCI/ADR-RES, 45.9 µM (inactive); with TK-10, 18.2 µM (inactive); in the experiment on Hs-578T, 25.5 µM (inactive); in the experiment on U-251 it was 17.3 µM (inactive). For the same molecule, the GI50 with 786-0 was 34.4 µM (inactive); with MDA-N, 24.1 µM (inactive); in the experiment on KM12, 19.2 µM (inactive); in the experiment with MOLT-4 it was 20.1 µM (inactive); with NCI-H23 it was 33.7 µM (inactive); with IGROV-1, 11.7 µM (inactive). Also, in the experiment on SW-620, the GI50 is 23.8 µM (inactive).
On to `COCn1c(=O)n(C)c(=O)c2c1nc1c(c(=O)n(C)c(=O)n1COC)[n+]2[O-]`, for which the GI50 is 9.1 µM (inactive) in the experiment on RPMI-8226; 0.789 µM (active) in the experiment on RXF 393; 10.3 µM (inactive) in the experiment with M14; 5.75 µM (inactive) in the experiment with MDA-MB-435; 8.97 µM (inactive) in the experiment on NCI-H522; 24.9 µM (inactive) in the experiment with UO-31. Further, the GI50 with CAKI-1 is 20.3 µM (inactive); in the experiment on SNB-19, 13.7 µM (inactive); in the experiment on NCI/ADR-RES it was 59 µM (inactive); in the experiment on TK-10, 8.69 µM (inactive); in the experiment with Hs-578T, 8.55 µM (inactive); in the experiment on U-251 it was 5.85 µM (inactive). Further, the GI50 is 18.4 µM (inactive) with 786-0; 4.32 µM (inactive) with MDA-N; 13.3 µM (inactive) with KM12; 4.19 µM (inactive) in the experiment with MOLT-4; 3.29 µM (inactive) in the experiment on NCI-H23; 7.36 µM (inactive) in the experiment on IGROV-1. Moreover, the GI50 in the experiment on SW-620 was 11.1 µM (inactive).
In the case of `CC(=O)O/C=C\OC1CCCC1`, the GI50 in the experiment on RPMI-8226, with RXF 393, in the experiment on M14, in the experiment on MDA-MB-435, with NCI-H522 and in the experiment on UO-31 was > 100 µM (inactive) throughout. The GI50 in the experiment on CAKI-1, in the experiment on SNB-19, in the experiment with NCI/ADR-RES, in the experiment on TK-10, in the experiment with Hs-578T and in the experiment on U-251 was > 100 µM (inactive) each time. The GI50 with 786-0, in the experiment on MDA-N, in the experiment on KM12, with MOLT-4, with NCI-H23 and in the experiment with IGROV-1 was > 100 µM (inactive) each time. The GI50 in the experiment with SW-620 is > 100 µM (inactive).
